Tested on: 521955-158-R2-J5-PDC complex spheroid growth, % test/control
Assay: Anticancer human tumor 521955-158-R2-J5-PDC patient-derived pancreatic carcinoma cell line growth inhibition [Asc]
Conditions: for IC50: curve of first compound; for viability, T/C: stronger effect = lower value
Outline: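 Complex spheroids combining tumor cells with HUVEC endothelial cells and human MSCs, at 37 degrees C, 5% CO2; agents tested alone or combined, half-log dilutions from at or near clinical Cmax, or 10 microM if Cmax unknown.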

[1] = second compound 0.1 µM, first compound 0.0316 µM
[2] = second compound 0.1 µM, first compound 0.1 µM
[3] = second compound 0.1 µM, first compound 0.316 µM
[4] = second compound 0.1 µM, first compound 1 µM
[5] = second compound 0.1 µM, first compound 3.16 µM
[6] = second compound 0.1 µM, first compound 10 µM
[7] = second compound 0.316 µM, first compound 0.0316 µM
[8] = second compound 0.316 µM, first compound 0.1 µM
[9] = second compound 0.316 µM, first compound 0.316 µM
[10] = second compound 0.316 µM, first compound 1 µM
[11] = second compound 0.316 µM, first compound 3.16 µM
[12] = second compound 0.316 µM, first compound 10 µM
[13] = second compound 1 µM, first compound 0.0316 µM
[14] = second compound 1 µM, first compound 0.1 µM
[15] = second compound 1 µM, first compound 0.316 µM
[16] = second compound 1 µM, first compound 1 µM
[17] = second compound 1 µM, first compound 3.16 µM
[18] = second compound 1 µM, first compound 10 µM
[19] = second compound 3.16 µM, first compound 0.0316 µM
[20] = second compound 3.16 µM, first compound 0.1 µM
[21] = second compound 3.16 µM, first compound 0.316 µM
[22] = second compound 3.16 µM, first compound 1 µM
[23] = second compound 3.16 µM, first compound 3.16 µM
[24] = second compound 3.16 µM, first compound 10 µM
[25] = second compound 10 µM, first compound 0.0316 µM
[26] = second compound 10 µM, first compound 0.1 µM
[27] = second compound 10 µM, first compound 0.316 µM
[28] = second compound 10 µM, first compound 1 µM
[29] = second compound 10 µM, first compound 3.16 µM
[30] = second compound 10 µM, first compound 10 µM
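Note: spheroids exposed to agents for 7 days before readout.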
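Throughout, for viability, T/C: 100% = DMSO vehicle control viability.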

Work on `C=C(F)C(=O)N1CCN(c2nc(OCC3CCCN3C)nc3c2CCN(c2cccc4cccc(Cl)c24)C3)CC1CC#N` (stereo not given) + Cc1c(S(C)(=O)=O)c(-c2cc(F)cc(N3CCN(c4ccc(NS(=O)(=O)c5ccc(NC(CCN6CCC(C(=O)OCCCP(=O)(O)O)CC6)CSc6ccccc6)c(S(=O)(=O)C(F)(F)F)c5)cc4)CC3)c2)c(-c2ccc(Cl)cc2)n1C(C)C yielded an IC50 (second compound 0.1 µM) of 4.85 µM, an IC50 (second compound 0.316 µM) of 4.94 µM and an IC50 (second compound 1 µM) of 5.24 µM. For the same compound, the IC50 (second compound 3.16 µM) was 5.01 µM, the IC50 (second compound 10 µM) was 6.66 µM and the viability, T/C [1] was 64.6%. The viability, T/C [2] was 69.9%, the viability, T/C [3] was 55.4% and the viability, T/C [4] was 105%. The viability, T/C [5] was 101%, the viability, T/C [6] was 0.26% and the viability, T/C [7] was 69%. The viability, T/C [8] was 76.6%, the viability, T/C [9] was 81.7% and the viability, T/C [10] was 84.3%. The viability, T/C [11] was 95.5%, the viability, T/C [12] was 0.21% and the viability, T/C [13] was 105%. The viability, T/C [14] was 82.9%, the viability, T/C [15] was 69.2% and the viability, T/C [16] was 80.8%. It also gave a viability, T/C [17] of 106%, a viability, T/C [18] of 0.21% and a viability, T/C [19] of 62.4%. For the same compound, the viability, T/C [20] was 80.9%, the viability, T/C [21] was 69.5% and the viability, T/C [22] was 104%. For the same compound, the viability, T/C [23] was 99.2%, the viability, T/C [24] was 0.23% and the viability, T/C [25] was 190%. It also gave a viability, T/C [26] of 168%, a viability, T/C [27] of 195% and a viability, T/C [28] of 188%. For the same compound, the viability, T/C [29] was 138% and the viability, T/C [30] was 2.12%.
`C=CC(=O)N1CCN(c2nc(=O)n(-c3c(C)ccnc3C(C)C)c3nc(-c4c(O)cccc4F)c(F)cc23)C(C)C1` (stereo not given) + Cc1c(S(C)(=O)=O)c(-c2cc(F)cc(N3CCN(c4ccc(NS(=O)(=O)c5ccc(NC(CCN6CCC(C(=O)OCCCP(=O)(O)O)CC6)CSc6ccccc6)c(S(=O)(=O)C(F)(F)F)c5)cc4)CC3)c2)c(-c2ccc(Cl)cc2)n1C(C)C was tested, and the IC50 (second compound 0.1 µM) was greater than 10 µM, the IC50 (second compound 0.316 µM) was greater than 10 µM and the IC50 (second compound 1 µM) was greater than 10 µM. It also gave an IC50 (second compound 3.16 µM) greater than 10 µM, an IC50 (second compound 10 µM) greater than 10 µM and a viability, T/C [1] of 77.7%. It also gave a viability, T/C [2] of 87.5%, a viability, T/C [3] of 64.9% and a viability, T/C [4] of 94.5%. For the same compound, the viability, T/C [5] was 107%, the viability, T/C [6] was 77.5% and the viability, T/C [7] was 80.6%. For the same compound, the viability, T/C [8] was 72.2%, the viability, T/C [9] was 84.8% and the viability, T/C [10] was 112%. It also gave a viability, T/C [11] of 111%, a viability, T/C [12] of 83.7% and a viability, T/C [13] of 69.5%. The viability, T/C [14] was 72.3%, the viability, T/C [15] was 85.8% and the viability, T/C [16] was 95.7%. The viability, T/C [17] was 71.8%, the viability, T/C [18] was 81.7% and the viability, T/C [19] was 73.7%. It also gave a viability, T/C [20] of 97.8%, a viability, T/C [21] of 83.5% and a viability, T/C [22] of 86.5%. For the same compound, the viability, T/C [23] was 103%, the viability, T/C [24] was 80.3% and the viability, T/C [25] was 151%. The viability, T/C [26] was 176%, the viability, T/C [27] was 167% and the viability, T/C [28] was 112%. The viability, T/C [29] was 123% and the viability, T/C [30] was 98.4%.
`CCN1C(C(=O)NC23CCC(C(=O)O)(CC2)CC3)C(c2cccc(Cl)c2F)C2(C(=O)Nc3cc(Cl)ccc32)C12CCCCC2` (stereo not given) + Cc1c(S(C)(=O)=O)c(-c2cc(F)cc(N3CCN(c4ccc(NS(=O)(=O)c5ccc(NC(CCN6CCC(C(=O)OCCCP(=O)(O)O)CC6)CSc6ccccc6)c(S(=O)(=O)C(F)(F)F)c5)cc4)CC3)c2)c(-c2ccc(Cl)cc2)n1C(C)C gave an IC50 (second compound 0.1 µM) greater than 3 µM, an IC50 (second compound 0.316 µM) greater than 3 µM and an IC50 (second compound 1 µM) greater than 3 µM. The IC50 (second compound 3.16 µM) was greater than 3 µM, the IC50 (second compound 10 µM) was greater than 3 µM and the viability, T/C (second compound 0.1 µM, first compound 0.00949 µM) was 70.7%. For the same compound, the viability, T/C (second compound 0.1 µM, first compound 0.03 µM) was 80.8%, the viability, T/C (second compound 0.1 µM, first compound 0.0949 µM) was 54.6% and the viability, T/C (second compound 0.1 µM, first compound 0.3 µM) was 95%. The viability, T/C (second compound 0.1 µM, first compound 0.949 µM) was 76.5%, the viability, T/C (second compound 0.1 µM, first compound 3 µM) was 92.6% and the viability, T/C (second compound 0.316 µM, first compound 0.00949 µM) was 73.3%. It also gave a viability, T/C (second compound 0.316 µM, first compound 0.03 µM) of 90.4%, a viability, T/C (second compound 0.316 µM, first compound 0.0949 µM) of 61.1% and a viability, T/C (second compound 0.316 µM, first compound 0.3 µM) of 72.8%. The viability, T/C (second compound 0.316 µM, first compound 0.949 µM) was 76%, the viability, T/C (second compound 0.316 µM, first compound 3 µM) was 89.6% and the viability, T/C (second compound 1 µM, first compound 0.00949 µM) was 66.2%. It also gave a viability, T/C (second compound 1 µM, first compound 0.03 µM) of 91%, a viability, T/C (second compound 1 µM, first compound 0.0949 µM) of 69.4% and a viability, T/C (second compound 1 µM, first compound 0.3 µM) of 74.1%. It also gave a viability, T/C (second compound 1 µM, first compound 0.949 µM) of 67.7%, a viability, T/C (second compound 1 µM, first compound 3 µM) of 64.5% and a viability, T/C (second compound 3.16 µM, first compound 0.00949 µM) of 111%. The viability, T/C (second compound 3.16 µM, first compound 0.03 µM) was 91.7%, the viability, T/C (second compound 3.16 µM, first compound 0.0949 µM) was 86.1% and the viability, T/C (second compound 3.16 µM, first compound 0.3 µM) was 100%. The viability, T/C (second compound 3.16 µM, first compound 0.949 µM) was 77%, the viability, T/C (second compound 3.16 µM, first compound 3 µM) was 76.7% and the viability, T/C (second compound 10 µM, first compound 0.00949 µM) was 151%. It also gave a viability, T/C (second compound 10 µM, first compound 0.03 µM) of 153%, a viability, T/C (second compound 10 µM, first compound 0.0949 µM) of 166% and a viability, T/C (second compound 10 µM, first compound 0.3 µM) of 169%. The viability, T/C (second compound 10 µM, first compound 0.949 µM) was 107% and the viability, T/C (second compound 10 µM, first compound 3 µM) was 112%.

From PubChem BioAssay AID1963430 (Molecular Pharmacology Branch, DTP, NCI, 2024)
